A word on the Cmax: it is the highest concentration seen after dosing. By Tmax is commonly meant the time at which the peak concentration occurs. A word on the AUC(0-t): it is the area under the concentration-time curve up to a stated or last time point. By EC50 is commonly meant the concentration at which the effect is half-maximal.

The source of these data is ChEMBL document CHEMBL1212786 (Antimicrob Agents Chemother, 2010).

A short description of series [1]: Cmax in monkey at 1 mg/kg, iv after 24 hrs by LC/MS/MS analysis. The series is classed as ADME, organism-based, Macaca mulatta. Also noted: dose 1 mg/kg, route intravenous. The conditions noted are these: rhesus monkey, in vivo.
A short description of series [2]: Apparent volume of distribution in Sprague-Dawley rat at 2 mg/kg, iv after 24 hrs by LC/MS/MS analysis. The class given is ADME, organism-based. Also on record: dose 2 mg/kg, route intravenous. The conditions noted are these: in vivo, read-out: Vz.
Series [3] is described as follows: Cmax in Sprague-Dawley rat at 20 mg/kg, po after 24 hrs by LC/MS/MS analysis. The series is classed as ADME, organism-based. Also noted: dose 20 mg/kg, route oral. The conditions noted are these: in vivo.
The nature of series [4]: Tmax in monkey at 7. 5 mg/kg, po by LC/MS/MS analysis. The series is classed as ADME, organism-based, Macaca mulatta. Also noted: dose 5 mg/kg, route oral. The conditions noted are these: rhesus monkey, in vivo.
Series [5] can be described thus: AUC (2 to 24 hrs) in Sprague-Dawley rat whole blood at 10 mg/kg, iv by LC/MS/MS analysis. The series is classed as ADME, organism-based. Also noted: time 2-24 hr, dose 10 mg/kg, route intravenous.
Series [6] deals with Hepatitis C virus. Put plainly: microbe, parasite or virus in culture. The conditions noted are these: Huh-7, 24 h.
Description: Antiviral activity against Hepatitis C virus infected in human Huh7ET cells assessed as inhibition of viral replication after 24 hrs by luciferase reporter gene assay
The test system of series [7] is Hepatitis C virus. Put plainly: microbe, parasite or virus in culture. The conditions noted are these: Huh-7, 72 h.

Regarding `C/C=C/C[C@@H](C)[C@@H](O)[C@H]1C(=O)N[C@@H](CC)C(=O)N(C)C(SCCN(C)C)C(=O)N(C)[C@@H](CC(C)(C)O)C(=O)N[C@@H](C(C)C)C(=O)N(C)[C@@H](CC(C)C)C(=O)N[C@@H](C)C(=O)N[C@H](C)C(=O)N(C)[C@@H](CC(C)C)C(=O)N(C)[C@@H](CC(C)C)C(=O)N(C)[C@@H](C(C)C)C(=O)N1C` (single isomer, unassigned) [SCY 635], the results for the Cmax in series [1] and in series [3] were 2560 ng/mL and 1760 ng/mL, respectively. In series [2], the Vd was 3.37 L/kg. Besides, the Tmax in series [4] was found to be 2.7 h. In series [5], this molecule returned an AUC(0-t) of 30500 ng·h/mL. Besides, the half-maximal effective concentration (EC50) worked out at 200 nM in the series with Hepatitis C virus [6] and 120 nM in the series on Hepatitis C virus [7].
